Experimental findings from patent publication US20080287299A1, “Use of Imidazole and/or Triazole Derivatives for Combating Plant Pests; as Well as Method for Controlling Diseases/Insects/Mites/Nematodes and Weeds, Particularly Foliar and/or Soil Diseases” (priority 2005, published 2008) are described below.

Structures are written as SMILES.

The subject of this assay is Phakopsora pachyrhizi. The assay can be described thus: Greenhouse soybean rust test, plants at V5 stage, evaluated every 7 days. The assay is classed as in vivo. To be noted: for SEVERITY OF RUST (% IFA) 7 DAT / SEVERITY OF RUST (% IFA) 14 DAT / SEVERITY OF RUST (% IFA) 21 DAT / SEVERITY OF RUST (% IFA) 28 DAT: soybean; for effective in controlling soybean rust: from 50 grams of active ingredient per hectare. An excerpt:
Recent tests carried out in greenhouses the laboratory of FMC Quimica do Brasil Ltda. in Uberaba, MG, Brazil, show the highly fungicidal effect of said specific imidazole and/or triazole derivatives in combating diseases of plants, particularly against the attack by the fungus Phakopsora pachyrhizi on soybeans, as described hereinafter.
Experimental Outline Experimental Outline: entirely made with five repetitions, two plants per repetition, totaling 10 plants.
a) Preventive Mode: 30 days after plantation of the soybeans in plastic 2-liter pots and with corresponding volumes of soil, the soybean plants were at the V5 stage with six expanded folioles. At this moment, the compounds were sprayed and then, 48 hours afterwards, inoculation of the rust was effected. To effect the inoculation, one prepared a suspension of Phakopsora uredospores at the concentration of 2×10^4 spores/milliliters.
b) Healing mode: 30 days after plantation of the soybeans in 2-liter plastic pots and with a corresponding volume of soil, the soybean plants were at the V5 stage with six expanded folioles. At this moment, one effected the inoculation of the rust and then, 48 hours afterwards, the compounds were sprayed. To effect the inoculation, one prepared a suspension of Phakopsora uredospores at the concentration of 2×10^4 spores/milliliters.
Equipment: a manual sprayer commonly used in agriculture with 2-liter capacity.
Dosages: 50 to 300 grams per hectare of the active compound Itraconazole per liter diluted in water.
Evaluations of the Effectiveness of the Product: The evaluations were made every 7 days after application of the product, in a total of 4 evaluations. As an evaluation parameter one utilized the severity of the disease (percentage of foliar area attacked by rust) according to FIG. 1).
Dosages: 50 to 300 grams per hectare of the active compound Voriconazole per liter diluted in water.

On to `CC[C@@H]([C@H](C)O)n1ncn(-c2ccc(N3CCN(c4ccc(OC[C@@H]5CO[C@](Cn6cncn6)(c6ccc(F)cc6F)C5)cc4)CC3)cc2)c1=O` [Posaconazole, 1-((1S,2S)-1-ethyl-2-hydroxypropyl)-4-{4-[4-(4-{[(5S,3R)-5-(2,4-difluorophenyl)-5-(1,2,4-triazolylmethyll)oxolan-3-yl]methoxy}phenyl)pipera-zinyl]phenyl}-1,2,4-triazolin-5-one], for which the “effective in controlling soybean rust” value is reported as “effective in controlling soybean rust”. Where the note is “Table 6: 50 g ac/ha”, the “SEVERITY OF RUST (% IFA) 7 DAT” value is reported as 11 % IFA, the “SEVERITY OF RUST (% IFA) 14 DAT” value worked out at 13 % IFA, the “SEVERITY OF RUST (% IFA) 21 DAT” value turned out to be 15 % IFA and the “SEVERITY OF RUST (% IFA) 28 DAT” value amounted to 14 % IFA. Moreover, where the note is “Table 6: 100 g ac/ha”, the “SEVERITY OF RUST (% IFA) 7 DAT” value was 5 % IFA, the “SEVERITY OF RUST (% IFA) 14 DAT” value is 8 % IFA, the “SEVERITY OF RUST (% IFA) 21 DAT” value came out at 12 % IFA and the “SEVERITY OF RUST (% IFA) 28 DAT” value was 13 % IFA. Besides, under “Table 6: 150 g ac/ha”, the “SEVERITY OF RUST (% IFA) 7 DAT” value amounted to 0 % IFA, the “SEVERITY OF RUST (% IFA) 14 DAT” value was 6 % IFA, the “SEVERITY OF RUST (% IFA) 21 DAT” value worked out at 9 % IFA and the “SEVERITY OF RUST (% IFA) 28 DAT” value was found to be 12 % IFA. For the setting “Table 6: 200 g ac/ha”, the “SEVERITY OF RUST (% IFA) 7 DAT” value came to 3 % IFA, the “SEVERITY OF RUST (% IFA) 14 DAT” value came to 0 % IFA, the “SEVERITY OF RUST (% IFA) 21 DAT” value is reported as 6 % IFA and the “SEVERITY OF RUST (% IFA) 28 DAT” value was determined as 9 % IFA. Where the note is “Table 6: 300 g ac/ha”, the “SEVERITY OF RUST (% IFA) 7 DAT” value amounted to 0 % IFA, the “SEVERITY OF RUST (% IFA) 14 DAT” value is reported as 0 % IFA, the “SEVERITY OF RUST (% IFA) 21 DAT” value was 3 % IFA and the “SEVERITY OF RUST (% IFA) 28 DAT” value turned out to be 7 % IFA.

`C[C@@H](c1nc(-c2ccc(C#N)cc2)cs1)[C@](O)(Cn1cncn1)c1ccc(F)cc1F` [Ravuconazole, 4-[2-[(1R,2R)-2-(2,4-difluor-phenyl)-2-hydroxy-1-methyl-3-(1H-1,2,4-triazol-1-yl)propyl]4-thiazolyl]-benzonitriyl]: the “effective in controlling soybean rust” value is recorded as “effective”. Besides, for the setting “Table 4: 50 g ca/ha”, the “SEVERITY OF RUST (% IFA) 7 DAT” value amounted to 15 % IFA, the “SEVERITY OF RUST (% IFA) 14 DAT” value is 16 % IFA, the “SEVERITY OF RUST (% IFA) 21 DAT” value amounted to 16 % IFA and the “SEVERITY OF RUST (% IFA) 28 DAT” value was 18 % IFA. Also, for the setting “Table 4: 100 g ca/ha”, the “SEVERITY OF RUST (% IFA) 7 DAT” value came to 12 % IFA, the “SEVERITY OF RUST (% IFA) 14 DAT” value came out at 12 % IFA, the “SEVERITY OF RUST (% IFA) 21 DAT” value worked out at 14 % IFA and the “SEVERITY OF RUST (% IFA) 28 DAT” value is listed as 18 % IFA. Moreover, where the note is “Table 4: 150 g ca/ha”, the “SEVERITY OF RUST (% IFA) 7 DAT” value came out at 9 % IFA, the “SEVERITY OF RUST (% IFA) 14 DAT” value is 11 % IFA, the “SEVERITY OF RUST (% IFA) 21 DAT” value was 11 % IFA and the “SEVERITY OF RUST (% IFA) 28 DAT” value amounted to 16 % IFA. Further, under “Table 4: 200 g ca/ha”, the “SEVERITY OF RUST (% IFA) 7 DAT” value came out at 3 % IFA, the “SEVERITY OF RUST (% IFA) 14 DAT” value stood at 7 % IFA, the “SEVERITY OF RUST (% IFA) 21 DAT” value worked out at 11 % IFA and the “SEVERITY OF RUST (% IFA) 28 DAT” value is reported as 15 % IFA. Besides, where the note is “Table 4: 300 g ca/ha”, the “SEVERITY OF RUST (% IFA) 7 DAT” value came out at 2 % IFA, the “SEVERITY OF RUST (% IFA) 14 DAT” value was 3 % IFA, the “SEVERITY OF RUST (% IFA) 21 DAT” value came to 9 % IFA and the “SEVERITY OF RUST (% IFA) 28 DAT” value is recorded as 11 % IFA.
